Experimental data from US4959363A, “Quinolonecarboxamide compounds, their preparation and use as antivirals” (Sterling Drug Inc., priority 1989, dated 1990).

Tests used:
[1] = In vitro maximum tolerated dose (MTL), Vero cells; format: cell-based, African Green Monkey; settings: monkey, In Vitro
[2] = set-up: species or system albino mice; settings: mouse

SMILES	MNTC at 72 h ([1]; vero cells)	In Vivo MTL (Maximum tolerated dose) [2]	MNTC at 72 h ([1]; Vero cells)
CCn1c(N)c(C(N)=O)c(=O)c2ccc(-c3ccncc3)cc21 [Example 40b, 2-Amino-1,4-dihydro-1-ethyl-4-oxo-7-(4-pyridinyl)-3quinolinecarboxamide]	> 12.5 µg/mL	> 100	–
CCn1cc(C(N)=O)c(=O)c2cc(F)c(-c3ccncc3)cc21 [Example 25, 1-Ethyl-6-fluoro-1,4-dihydro-4-oxo-7-(4-pyridinyl)-3quinolinecarboxamide]	> 100 µg/mL	–	–
CCCCCn1cc(C(N)=O)c(=O)c2ccc(-c3ccncc3)cc21 [Example 26, 1,4-Dihydro-4-oxo-1-pentyl-7-(4-pyridinyl)-3-quinolinecarboxamide]	–	–	6.2 µg/mL
CCn1cc(C(N)=O)c(=O)c2ccc(-c3cccnc3)cc21 [Example 27b, 1-Ethyl-1,4-dihydro-4-oxo-7-(3-pyridinyl)-3-quinolinecarboxamide]	50 µg/mL	100	–
CCn1cc(C(N)=O)c(=O)c2ccc(-c3ccno3)cc21 [Example 24c, 1-Ethyl-1,4-dihydro-7-(5-isoxazolyl)-4-oxo-3-quinolinecarboxamide]	12.5 µg/mL	> 200	–
Cc1ccc(-n2cc(C(N)=O)c(=O)c3ccc(-c4ccncc4)cc32)cc1 [Example 33, 1,4-Dihydro-1-(4-methylphenyl)-7-(4-pyridinyl)-4-oxo-3quinolinecarboxamide]	> 25 µg/mL	50	–
Cc1ccc(-n2cc(C(N)=O)c(=O)c3ccc(-c4ccncc4)cc32)cc1C [Example 13, 1,4-Dihydro-1-(3,4-dimethylphenyl)-4-oxo-7-(4-pyridinyl)-3-quinolinecarboxamide]	> 100 µg/mL	–	–
Cn1cc(C(N)=O)c(=O)c2ccc(-c3ccncc3)cc21 [Example 16, 1,4-Dihydro-1-methyl-4-oxo-7-(4-pyridinyl)-3-quinolinecarboxamide]	> 25 µg/mL	25	–
O=C(NCN1CCOCC1)c1cn(-c2ccc(F)cc2)c2cc(-c3ccncc3)ccc2c1=O [Example 4, N-(4-Morpholinylmethyl)-1-(4-fluorophenyl)-1,4-dihydro-4-oxo-7-(4-pyridinyl)-3-quinolinecarboxamide]	> 12.5 µg/mL	–	–
NC(=O)c1cn(-c2ccccc2)c2cc(-c3ccncc3)ccc2c1=O [Example 21, 1,4-Dihydro-4-oxo-1-phenyl-7-(4-pyridinyl)-3-quinolinecarboxamide]	6.25 µg/mL	–	–
O=C(NCN1CCCCC1)c1cn(-c2ccc(F)cc2)c2cc(-c3ccncc3)ccc2c1=O [Example 5, N-(1-Piperidinylmethyl)-1-(4-fluorophenyl)-1,4-dihydro-4-oxo-7-(4-pyridinyl)-3-quinolinecarboxamide]	> 12.5 µg/mL	–	–
CCn1cc(C(=O)NN)c(=O)c2ccc(-c3ccccc3)cc21 [Example 36, 1-Ethyl-1,4-dihydro-4-oxo-7-phenyl-3-quinolinecarboxylic acid hydrazide]	25 µg/mL	> 200	–
CCCCn1cc(C(N)=O)c(=O)c2ccc(-c3ccncc3)cc21 [Example 17, 1-Butyl-1,4-dihydro-4-oxo-7-(4-pyridinyl)-3-quinolinecarboxamide]	6.2 µg/mL	50	–
CCn1cc(C(N)=O)c(=O)c2ccc(-c3cc(C)no3)cc21 [Example 23d, 1-Ethyl-1,4-dihydro-7-(3-methyl-5-isoxazolyl)-4-oxo-3-quinolinecarboxamide]	> 100 µg/mL	> 200	–
NC(=O)c1cn(C2CC2)c2cc(-c3ccncc3)ccc2c1=O [Example 11, 1-Cyclopropyl-1,4-dihydro-4-oxo-7-(4-pyridinyl)-3-quinolinecarboxamide]	25 µg/mL	25	–
C=CCn1cc(C(N)=O)c(=O)c2ccc(-c3ccncc3)cc21 [Example 19, 1,4-Dihydro-4-oxo-1-(2-propenyl)-7-(4-pyridinyl)-3-quinolinecarboxamide]	6.25 µg/mL	< 50	–
CCn1cc(C(N)=O)c(=O)c2ccc(-c3cc(C)nc(C)c3)cc21 [Example 7, 1-Ethyl-1,4-dihydro-4-oxo-7-(2,6-dimethyl-4-pyridinyl)-3quinolinecarboxamide]	12.5 µg/mL	25	–
NC(=O)c1cn(-c2ccc(F)cc2)c2cc(-c3ccncc3)c(F)cc2c1=O [Example 48c]	6.25 µg/mL	> 100	–
CC(C)(C)c1ccc(-n2cc(C(N)=O)c(=O)c3ccc(-c4ccncc4)cc32)cc1 [Example 9, 1-[4-(1,1-Dimethylethyl)phenyl]-1,4-dihydro-4-oxo-7-(4-pyridinyl)-3-quinolinecarboxamide]	> 25 µg/mL	–	–
NC(=O)c1cn(-c2ccc(F)cc2)c2cc(-c3ccccc3)ccc2c1=O [Example 44, 1,4-Dihydro-1-(4-fluorophenyl)-4-oxo-7-phenyl-3-quinolinecarboxamide]	12.5 µg/mL	> 200	–
COc1ccc(-n2cc(C(N)=O)c(=O)c3ccc(-c4ccncc4)cc32)cc1 [Example 8, 1,4-Dihydro-1-(4-methoxyphenyl)-4-oxo-7-(4-pyridinyl)-3quinolinecarboxamide]	> 25 µg/mL	50	–
CCn1cc(C(N)=O)c(=O)c2ccc(-c3ccccn3)cc21 [Example 20, 1-Ethyl-1,4-dihydro-4-oxo-7-(2-pyridinyl)-3-quinolinecarboxamide]	25 µg/mL	100	–
NC(=O)c1cn(-c2ccc(C(F)(F)F)cc2)c2cc(-c3ccncc3)ccc2c1=O [Example 35, 1,4-Dihydro-7-(4-pyridinyl)-1-(4-trifluoromethylphenyl)-4-oxo-3-quinolinecarboxamide]	> 100 µg/mL	50	–
CCn1cc(C(=O)NN)c(=O)c2ccc(-c3ccncc3)cc21 [Example 29, 1-Ethyl-1,4-dihydro-4-oxo-7-(4-pyridinyl)-3-quinolinecarboxylic acid hydrazide]	50 µg/mL	100	–
CCCn1cc(C(N)=O)c(=O)c2ccc(-c3ccncc3)cc21 [Example 18, 1,4-Dihydro-4-oxo-1-propyl-7-(4-pyridinyl)-3-quinolinecarboxamide]	6.25 µg/mL	–	–
NC(=O)c1cn(Cc2ccc(Cl)c(Cl)c2)c2cc(-c3ccncc3)ccc2c1=O [Example 12, 1-(3,4-Dichlorobenzyl)-1,4-dihydro-4-oxo-7-(4-pyridinyl)-3-quinolinecarboxamide]	> 100 µg/mL	> 100	–
NC(=O)c1cn(-c2ccccc2F)c2cc(-c3ccncc3)ccc2c1=O [Example 34, 1,4-Dihydro-1-(2-fluorophenyl)-7-(4-pyridinyl)-4-oxo-3quinolinecarboxamide]	1.6 µg/mL	100	–
CCn1cc(C(=O)NO)c(=O)c2ccc(-c3ccncc3)cc21 [Example 30, 1-Ethyl-1,4-dihydro-N-hydroxy-4-oxo-7-(4-pyridinyl)-3quinolinecarboxamide]	25 µg/mL	100	–
NC(=O)c1c(O)n(-c2ccc(F)cc2)c2cc(-c3ccncc3)ccc2c1=O [Example 47e, 1,4-Dihydro-1-(4-fluorophenyl)-2-hydroxy-7-(4-pyridinyl)4-oxo-3-quinolinecarboxamide]	> 100 µg/mL	–	–
